In PubChem BioAssay AID1745844 (Carcinogenic Potency Database (CPDB), 2022):
“And” between values parts separate entries of the source, which are not always exact repeats. Equal values may be shown once. The source made the active and inactive calls. The rule behind the calls is not given here.

Tested on: rodent lifetime carcinogenesis bioassay, tumor incidence TD50
Experiment: chronic cancer bioassays in animals – CPDB, compiled studies (AID 1745844)

Compound ClC1(Cl)C2(Cl)C3(Cl)C4(Cl)C(Cl)(Cl)C5(Cl)C3(Cl)C1(Cl)C5(Cl)C24Cl (stereo not given) has a TD50 (mouse, strain B6AKF1, females, oral dosing, site: any site (literature study), lesion: several types, types named in the paper, dosed 68 weeks, study length 68 weeks) of 1.26 mg/kg/day, a TD50 (mouse, strain B6AKF1, females, oral dosing, site: liver, lesion: hepatoma, dosed 68 weeks, study length 68 weeks) of 1.1 mg/kg/day and a TD50 (mouse, strain B6AKF1, males, oral dosing, site: any site (literature study), lesion: several types, types named in the paper, dosed 58 weeks, study length 58 weeks) of 3.32 mg/kg/day. The TD50 (mouse, strain B6AKF1, males, oral dosing, site: liver, lesion: hepatoma, dosed 58 weeks, study length 58 weeks) was 2.13 mg/kg/day, the TD50 (mouse, strain B6C3F1, females, oral dosing, site: any site (literature study), lesion: several types, types named in the paper, dosed 69 weeks, study length 69 weeks) was 1.6 mg/kg/day and the TD50 (mouse, strain B6C3F1, females, oral dosing, site: liver, lesion: hepatoma, dosed 69 weeks, study length 69 weeks) was 1.6 mg/kg/day. It also gave a TD50 (mouse, strain B6C3F1, males, oral dosing, site: any site (literature study), lesion: several types, types named in the paper, dosed 58 weeks, study length 58 weeks) of 1.5 mg/kg/day, a TD50 (mouse, strain B6C3F1, males, oral dosing, site: liver, lesion: hepatoma, dosed 58 weeks, study length 58 weeks) of 1.83 mg/kg/day and a TD50 (mouse, strain B6C3F1, males, oral dosing, site: liver, lesion: several types, types named in the paper, dosed 58 weeks, study length 58 weeks) of 1.5 mg/kg/day. For the same compound, the TD50 (rat, strain Fischer 344, females, in feed, site: any site (literature study), lesion: several types, types named in the paper, dosed 104 weeks, study length 105 weeks) was 21.9 mg/kg/day, the TD50 (rat, strain Fischer 344, females, in feed, site: any site (literature study), lesion: several types, types named in the paper, dosed 104 weeks, study length 107 weeks) was 22.4 mg/kg/day and the TD50 (rat, strain Fischer 344, females, in feed, site: liver + multiple organs + spleen, lesion: hepatocellular carcinoma + neoplastic nodule + mononuclear-cell leukemia, dosed 104 weeks, study length 105 weeks) was 3.34 mg/kg/day. The TD50 (rat, strain Fischer 344, females, in feed, site: liver, lesion: hepatocellular adenoma + hepatocellular carcinoma + neoplastic nodule, dosed 104 weeks, study length 105 weeks) was 3.17 mg/kg/day, the TD50 (rat, strain Fischer 344, females, in feed, site: liver, lesion: hepatocellular adenoma + hepatocellular carcinoma + neoplastic nodule, dosed 104 weeks, study length 107 weeks) was 16.5 mg/kg/day and the TD50 (rat, strain Fischer 344, females, in feed, site: liver, lesion: hepatocellular carcinoma + neoplastic nodule, dosed 104 weeks, study length 105 weeks) was 3.17 mg/kg/day. For the same compound, the TD50 (rat, strain Fischer 344, females, in feed, site: liver, lesion: neoplastic nodule, dosed 104 weeks, study length 105 weeks) was 3.22 mg/kg/day, the TD50 (rat, strain Fischer 344, females, in feed, site: multiple organs + spleen, lesion: mononuclear-cell leukemia, dosed 104 weeks, study length 105 weeks) was 15.7 mg/kg/day and the TD50 (rat, strain Fischer 344, females, in feed, site: multiple organs + spleen, lesion: mononuclear-cell leukemia, dosed 104 weeks, study length 107 weeks) was 5.97 mg/kg/day. The TD50 (rat, strain Fischer 344, males, in feed, site: adrenal gland + kidney/pelvis + liver, lesion: pheochromocytoma + pheochromocytoma, malignant + transitional-cell papilloma + hepatocellular carcinoma + neoplastic nodule, dosed 104 weeks, study length 104 weeks) was 0.669 mg/kg/day, the TD50 (rat, strain Fischer 344, males, in feed, site: adrenal gland, lesion: pheochromocytoma + pheochromocytoma, malignant, dosed 104 weeks, study length 104 weeks) was 1.43 mg/kg/day and the TD50 (rat, strain Fischer 344, males, in feed, site: any site (literature study), lesion: several types, types named in the paper, dosed 104 weeks, study length 104 weeks) was 0.618 mg/kg/day. The TD50 (rat, strain Fischer 344, males, in feed, site: kidney/pelvis, lesion: transitional-cell papilloma, dosed 104 weeks, study length 104 weeks) was 13.5 mg/kg/day, the TD50 (rat, strain Fischer 344, males, in feed, site: liver, lesion: hepatocellular adenoma + hepatocellular carcinoma + neoplastic nodule, dosed 104 weeks, study length 104 weeks) was 0.825 mg/kg/day and the TD50 (rat, strain Fischer 344, males, in feed, site: liver, lesion: hepatocellular carcinoma + neoplastic nodule, dosed 104 weeks, study length 104 weeks) was 0.825 mg/kg/day. The TD50 (rat, strain Fischer 344, males, in feed, site: liver, lesion: hepatocellular carcinoma, dosed 104 weeks, study length 104 weeks) was 7.09 mg/kg/day, the TD50 (rat, strain Fischer 344, males, in feed, site: liver, lesion: neoplastic nodule, dosed 104 weeks, study length 104 weeks) was 0.87 mg/kg/day and the TD50 (rat, strain Fischer 344, males, in feed, site: testis, lesion: interstitial-cell tumor, dosed 104 weeks, study length 104 weeks) was 0.708 mg/kg/day. The TD50 (rat, strain Fischer 344, males, in feed, site: thyroid gland, lesion: follicular-cell adenoma + follicular-cell carcinoma, dosed 104 weeks, study length 104 weeks) was 10.4 mg/kg/day and the TD50 (rat, strain Fischer 344, males, in feed, site: thyroid gland, lesion: follicular-cell adenoma, dosed 104 weeks, study length 104 weeks) was 12.7 mg/kg/day.

CCOP(=O)(CC1CO1)OCC (stereo not given) gave a TD50 (mouse, strain Ha/ICR, females, i.p., site: lung, lesion: papillary tumor, dosed 64 weeks, study length 64 weeks) of 12.4 mg/kg/day.

CCCCNC(=O)N(CCCC)N=O was tested, and the TD50 (rat, strain Donryu, females, in drinking water, site: all sites, lesion: leukemia, dosed 75 weeks, study length 75 weeks) was 32 mg/kg/day, the TD50 (rat, strain Donryu, females, in drinking water, site: any site (literature study), lesion: several types, types named in the paper, dosed 75 weeks, study length 75 weeks) was 2.67 mg/kg/day and the TD50 (rat, strain Donryu, females, in drinking water, site: liver, lesion: adenoma, dosed 75 weeks, study length 75 weeks) was 303 mg/kg/day. The TD50 (rat, strain Donryu, females, in drinking water, site: mammary gland, lesion: adenocarcinoma, dosed 75 weeks, study length 75 weeks) was 22.7 mg/kg/day, the TD50 (rat, strain Donryu, females, in drinking water, site: mammary tissue, wider than the gland, lesion: fibroadenoma, dosed 75 weeks, study length 75 weeks) was 2.23 mg/kg/day and the TD50 (rat, strain Donryu, females, in drinking water, site: mammary tissue, wider than the gland, lesion: several types, types named in the paper, dosed 75 weeks, study length 75 weeks) was 4.28 mg/kg/day. For the same compound, the TD50 (rat, strain Donryu, females, in drinking water, site: uterus, lesion: several types, types named in the paper, dosed 75 weeks, study length 75 weeks) was 15.3 mg/kg/day.

Compound OCCBr has a TD50 (mouse, strain B6C3F1, females, in drinking water, site: any site (literature study), lesion: several types, types named in the paper, dosed 79 weeks, study length 79 weeks) of 73.2 mg/kg/day, a TD50 (mouse, strain B6C3F1, females, in drinking water, site: forestomach, lesion: squamous-cell papilloma, dosed 79 weeks, study length 79 weeks) of 69.7 mg/kg/day and a TD50 (mouse, strain B6C3F1, females, in drinking water, site: liver, lesion: hemangioma, dosed 79 weeks, study length 79 weeks) of 800 mg/kg/day. The TD50 (mouse, strain B6C3F1, females, in drinking water, site: lung, lesion: papillary tumor, dosed 79 weeks, study length 79 weeks) was 1890 mg/kg/day, the TD50 (mouse, strain B6C3F1, males, in drinking water, site: any site (literature study), lesion: several types, types named in the paper, dosed 78 weeks, study length 78 weeks) was 86.6 mg/kg/day and the TD50 (mouse, strain B6C3F1, males, in drinking water, site: forestomach, lesion: squamous-cell papilloma, dosed 78 weeks, study length 78 weeks) was 83.9 mg/kg/day.

Compound O=C1NC(c2ccc([N+](=O)[O-])s2)Nc2ccccc21 (stereo not given) has a TD50 (rat, strain Sprague-Dawley, females, in feed, site: any site (literature study), lesion: several types, types named in the paper, dosed 46 weeks, study length 66 weeks) of 1.53 mg/kg/day and a TD50 (rat, strain Sprague-Dawley, females, in feed, site: mammary gland, lesion: adenocarcinoma, dosed 46 weeks, study length 66 weeks) of 13.3 mg/kg/day.

c1ccc2c(c1)ccc1cc3c(ccc4ccccc43)cc12 showed a TD50 (mouse, strain DBA/2, males, in drinking water, site: lung, lesion: alveolar-cell carcinoma, dosed 60 weeks, study length 60 weeks) of 5.88 mg/kg/day.

In the case of Nc1nc(N)nc(-c2ccccc2)n1, the TD50 (mouse, strain CD-1 HaM/ICR, females, in feed, site: any site (literature study), lesion: several types, types named in the paper, dosed 77 weeks, study length 94 weeks) is reported as 932 mg/kg/day (inactive), the TD50 (mouse, strain CD-1 HaM/ICR, females, in feed, site: liver, lesion: several types, types named in the paper, dosed 77 weeks, study length 94 weeks) is reported as 2040 mg/kg/day (inactive) and the TD50 (mouse, strain CD-1 HaM/ICR, females, in feed, site: lung, lesion: several types, types named in the paper, dosed 77 weeks, study length 94 weeks) is reported as 9340 mg/kg/day (inactive). The TD50 (mouse, strain CD-1 HaM/ICR, males, in feed, site: any site (literature study), lesion: several types, types named in the paper, dosed 73 weeks, study length 94 weeks) was 439 mg/kg/day (inactive), the TD50 (mouse, strain CD-1 HaM/ICR, males, in feed, site: liver, lesion: several types, types named in the paper, dosed 73 weeks, study length 94 weeks) was 3200 mg/kg/day (inactive) and the TD50 (mouse, strain CD-1 HaM/ICR, males, in feed, site: lung, lesion: several types, types named in the paper, dosed 73 weeks, study length 94 weeks) was 304 mg/kg/day (inactive). For the same compound, the TD50 (rat, strain Charles River CD (Sprague-Dawley), males, in feed, site: any site (literature study), lesion: several types, types named in the paper, dosed 77 weeks, study length 94 weeks) was 16.3 mg/kg/day (inactive) and the carcinogen call (rat, strain Charles River CD (Sprague-Dawley), males, in feed, site: liver, lesion: several types, types named in the paper, dosed 77 weeks, study length 94 weeks) was “negative (inactive)”.

For CN(N=O)c1ncnc2nc[nH]c12, the TD50 (mouse, strain Swiss CD-1, females, in drinking water, site: liver, lesion: several types, types named in the paper, dosed 104 weeks, study length 104 weeks) was 63.2 mg/kg/day, the TD50 (mouse, strain Swiss CD-1, females, in drinking water, site: mammary gland, lesion: carcinoma, dosed 104 weeks, study length 104 weeks) was 28.7 mg/kg/day and the TD50 (mouse, strain Swiss CD-1, females, in drinking water, site: reproductive tract, lesion: several types, types named in the paper, dosed 104 weeks, study length 104 weeks) was 15.8 mg/kg/day. The TD50 (mouse, strain Swiss CD-1, females, in drinking water, site: uterus, lesion: one or several types, types not named, dosed 104 weeks, study length 104 weeks) was 84.9 mg/kg/day, the TD50 (mouse, strain Swiss CD-1, males, in drinking water, site: liver, lesion: several types, types named in the paper, dosed 104 weeks, study length 104 weeks) was 62.6 mg/kg/day and the TD50 (mouse, strain Swiss CD-1, males, in drinking water, site: lung, lesion: one or several types, types not named, dosed 104 weeks, study length 104 weeks) was 18 mg/kg/day and 21.6 mg/kg/day.
